Experimental data from PubChem BioAssay AID256 (DTP/NCI, 2004).
Where “and” joins values, the source holds several entries; their conditions need not be identical. Equal entries are not always repeated. Toxic doses and inconclusive results are not listed. How the source made its calls: active means survival T/C of 150% or more; inactive means T/C below 125% in these data.

System: CD2F1 mice, L1210 leukemia ip, survival T/C
Experiment: NCI In Vivo Anticancer Drug Screen. Data for tumor model L1210 Leukemia (intraperitoneal) in CD2F1 (CDF1) mice
Conditions: higher = longer survival
Procedure, shortened: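 Compound-dosed mice with transplantable tumor versus matched vehicle controls; endpoint ratio T/C reported.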

[1] = endpoint: mean survival time, dose: 100.0 mg/kg/injection, schedule: Q04DX003 (ip), vehicle: saline
[2] = endpoint: mean survival time, dose: 200.0 mg/kg/injection, schedule: Q04DX003 (ip), vehicle: saline
[3] = endpoint: mean survival time, dose: 100.0 mg/kg/injection, schedule: Q01DX009 (ip), vehicle: saline with Tween-80
[4] = endpoint: mean survival time, dose: 200.0 mg/kg/injection, schedule: Q01DX009 (ip), vehicle: saline with Tween-80
[5] = endpoint: mean survival time, dose: 400.0 mg/kg/injection, schedule: Q01DX009 (ip), vehicle: saline with Tween-80
[6] = endpoint: mean survival time, dose: 100.0 mg/kg/injection, schedule: Q04DX003 (ip), vehicle: saline sonified
[7] = endpoint: mean survival time, dose: 200.0 mg/kg/injection, schedule: Q04DX003 (ip), vehicle: saline sonified
[8] = endpoint: mean survival time, dose: 400.0 mg/kg/injection, schedule: Q04DX003 (ip), vehicle: saline sonified
[9] = endpoint: mean survival time, dose: 12.5 mg/kg/injection, schedule: Q01DX009 (ip), vehicle: saline with Tween-80
[10] = endpoint: mean survival time, dose: 25.0 mg/kg/injection, schedule: Q01DX009 (ip), vehicle: saline with Tween-80
[11] = endpoint: mean survival time, dose: 50.0 mg/kg/injection, schedule: Q01DX009 (ip), vehicle: saline with Tween-80
[12] = endpoint: mean survival time, dose: 50.0 mg/kg/injection, schedule: Q04DX003 (ip), vehicle: saline with Tween-80
[13] = endpoint: mean survival time, dose: 100.0 mg/kg/injection, schedule: Q04DX003 (ip), vehicle: saline with Tween-80
[14] = endpoint: mean survival time, dose: 200.0 mg/kg/injection, schedule: Q04DX003 (ip), vehicle: saline with Tween-80
[15] = endpoint: mean survival time, dose: 100.0 mg/kg/injection, schedule: Q01DX001 (ip), vehicle: saline with Tween-80
[16] = endpoint: mean survival time, dose: 200.0 mg/kg/injection, schedule: Q01DX001 (ip), vehicle: saline with Tween-80

Measured: T/C

COc1cc2cc(c1Cl)N(C)C(=O)C[C@H](OC(=O)[C@H](C)N(C)C(C)=O)[C@]1(C)O[C@H]1[C@H](C)[C@@H]1C[C@@](O)(NC(=O)O1)[C@H](OC)C=C/C=C(\C)C2
inactive: endpoint: mean survival time, dose: 0.5 mg/kg/injection, schedule: Q01DX009 (ip), vehicle: saline 104 % of control | endpoint: mean survival time, dose: 1.0 mg/kg/injection, schedule: Q01DX009 (ip), vehicle: saline 109 % of control | endpoint: mean survival time, dose: 2.0 mg/kg/injection, schedule: Q01DX009 (ip), vehicle: saline 107 % of control | endpoint: mean survival time, dose: 32.0 mg/kg/injection, schedule: Q01DX009 (ip), vehicle: saline 91 % of control | endpoint: mean survival time, dose: 8.0 micrograms/kg/injection, schedule: Q01DX009 (ip), vehicle: saline + alcohol 111 % of control | endpoint: mean survival time, dose: 12.0 micrograms/kg/injection, schedule: Q01DX009 (ip), vehicle: saline + alcohol 109 % of control | endpoint: mean survival time, dose: 16.0 micrograms/kg/injection, schedule: Q01DX009 (ip), vehicle: saline + alcohol 112 % of control | endpoint: mean survival time, dose: 32.0 micrograms/kg/injection, schedule: Q01DX009 (ip), vehicle: saline + alcohol 122 % of control | endpoint: mean survival time, dose: 200.0 micrograms/kg/injection, schedule: Q01DX009 (ip), vehicle: saline + alcohol 120 % of control | endpoint: median survival time, dose: 4.0 micrograms/kg/injection, schedule: Q01DX009 (ip), vehicle: clinical formulation 117 % of control | endpoint: median survival time, dose: 8.0 micrograms/kg/injection, schedule: Q01DX009 (ip), vehicle: clinical formulation 117 % of control | endpoint: median survival time, dose: 16.0 micrograms/kg/injection, schedule: Q04DX003 (ip), vehicle: clinical formulation 112 % of control | endpoint: median survival time, dose: 32.0 micrograms/kg/injection, schedule: Q04DX003 (ip), vehicle: clinical formulation 117 % of control | endpoint: median survival time, dose: 64.0 micrograms/kg/injection, schedule: Q01DX001 (ip), vehicle: clinical formulation 110 % of control | endpoint: median survival time, dose: 512.0 micrograms/kg/injection, schedule: Q04DX003 (ip), vehicle: clinical formulation 96 % of control

COc1ccc(N2C(N)=NC(N)=NC2(C)C)cc1
inactive: endpoint: mean survival time, dose: 25.0 mg/kg/injection, schedule: Q04DX002 (ip), vehicle: saline 106 % of control | endpoint: mean survival time, dose: 50.0 mg/kg/injection, schedule: Q04DX002 (ip), vehicle: saline 100 % of control

O=C1C=C(N2CC2)C(=O)C=C1N1CC1
inactive: endpoint: mean survival time, dose: 0.12 mg/kg/injection, schedule: Q01DX Z (ip), vehicle: saline 120 % of control and 103 % of control | endpoint: mean survival time, dose: 0.25 mg/kg/injection, schedule: Q01DX Z (ip), vehicle: saline 119 % of control | endpoint: mean survival time, dose: 0.5 mg/kg/injection, schedule: Q01DX Z (ip), vehicle: saline 120 % of control | endpoint: mean survival time, dose: 1.0 mg/kg/injection, schedule: Q01DX Z (ip), vehicle: saline 91 % of control

O=[N+]([O-])c1ccc(S(=O)(=O)Cl)c(Cl)c1
inactive: endpoint: mean survival time, dose: 18.8 mg/kg/injection, schedule: Q01DX009 (ip), vehicle: saline with Tween-80 91 % of control | endpoint: mean survival time, dose: 37.5 mg/kg/injection, schedule: Q01DX009 (ip), vehicle: saline with Tween-80 100 % of control | endpoint: mean survival time, dose: 75.0 mg/kg/injection, schedule: Q01DX009 (ip), vehicle: saline with Tween-80 95 % of control | [1] 98 % of control | [2] 89 % of control | endpoint: mean survival time, dose: 400.0 mg/kg/injection, schedule: Q04DX003 (ip), vehicle: saline 86 % of control

CSCCCNC(=O)c1csc(CCNC(=O)c2ccccc2)n1
inactive: [3] 108 % of control | [4] 101 % of control | [5] 101 % of control

Cc1ccnc(=S)[nH]1.[Pd]
inactive: endpoint: mean survival time, dose: 3.12 mg/kg/injection, schedule: Q04DX003 (ip), vehicle: saline 98 % of control | endpoint: mean survival time, dose: 6.25 mg/kg/injection, schedule: Q04DX003 (ip), vehicle: saline 102 % of control | endpoint: mean survival time, dose: 12.5 mg/kg/injection, schedule: Q04DX003 (ip), vehicle: saline 98 % of control | endpoint: mean survival time, dose: 25.0 mg/kg/injection, schedule: Q04DX003 (ip), vehicle: saline 98 % of control | endpoint: mean survival time, dose: 50.0 mg/kg/injection, schedule: Q04DX003 (ip), vehicle: saline 102 % of control | [1] 102 % of control | [2] 104 % of control

Nc1ncnc2[nH]ncc12
inactive: endpoint: median survival time, dose: 3.0 mg/kg/injection, schedule: Q01DX009 (ip), vehicle: saline 100 % of control and 105 % of control | endpoint: median survival time, dose: 6.0 mg/kg/injection, schedule: Q01DX009 (ip), vehicle: saline 114 % of control and 111 % of control | endpoint: median survival time, dose: 12.0 mg/kg/injection, schedule: Q01DX009 (ip), vehicle: saline 121 % of control and 111 % of control

C(=Nc1ccccc1)c1ccccc1C=Nc1ccccc1
inactive: [3] 94 % of control | [6] 100 % of control | [4] 92 % of control | [7] 100 % of control | [5] 94 % of control | [8] 102 % of control

CC#CC(=O)SCCNC(=O)CC
inactive: [9] 101 % of control | [10] 101 % of control | endpoint: mean survival time, dose: 25.0 mg/kg/injection, schedule: Q04DX003 (ip), vehicle: saline with Tween-80 112 % of control | [11] 101 % of control | [12] 106 % of control | [13] 86 % of control

CC(=O)OCc1c(Cl)ccc(Cl)c1Cl
inactive: [3] 98 % of control | [6] 107 % of control | [4] 100 % of control | [7] 96 % of control | [5] 100 % of control | [8] 96 % of control

CCCCNc1nc2c(N)ncnc2n1C1OC(CO)C(O)C1O (stereo unspecified)
inactive: endpoint: mean survival time, dose: 12.5 mg/kg/injection, schedule: Q01DX005 (ip), vehicle: distilled water + Tween-80 100 % of control and 97 % of control | endpoint: mean survival time, dose: 25.0 mg/kg/injection, schedule: Q01DX005 (ip), vehicle: distilled water + Tween-80 102 % of control and 100 % of control | endpoint: mean survival time, dose: 50.0 mg/kg/injection, schedule: Q01DX005 (ip), vehicle: distilled water + Tween-80 100 % of control | endpoint: mean survival time, dose: 100.0 mg/kg/injection, schedule: Q01DX005 (ip), vehicle: distilled water + Tween-80 100 % of control and 102 % of control | endpoint: mean survival time, dose: 200.0 mg/kg/injection, schedule: Q01DX005 (ip), vehicle: distilled water + Tween-80 100 % of control and 103 % of control

O=C(/C=C/c1ccccc1)N/N=C/c1ccccc1Cl
inactive: endpoint: mean survival time, dose: 50.0 mg/kg/injection, schedule: Q01DX009 (ip), vehicle: Klucel (hydroxypropylcellulose) (HPC) 105 % of control | endpoint: mean survival time, dose: 100.0 mg/kg/injection, schedule: Q01DX009 (ip), vehicle: Klucel (hydroxypropylcellulose) (HPC) 105 % of control | endpoint: mean survival time, dose: 200.0 mg/kg/injection, schedule: Q01DX009 (ip), vehicle: Klucel (hydroxypropylcellulose) (HPC) 105 % of control

COc1cc(Cc2nc(Cl)cc(Cl)n2)cc(OC)c1OC
inactive: [3] 105 % of control | [13] 95 % of control | [4] 97 % of control | [14] 93 % of control | [5] 103 % of control | endpoint: mean survival time, dose: 400.0 mg/kg/injection, schedule: Q04DX003 (ip), vehicle: saline with Tween-80 97 % of control

CCCCCCCC/C=C\CCCCCCCCNC(C)=O
inactive: [3] 89 % of control | [4] 89 % of control

C=C[Si]1(C)O[Si](C)(C=C)O[Si](C)(C=C)O1 (stereo unspecified)
inactive: [11] 93 % of control | [3] 104 % of control | [4] 93 % of control

CN=NNc1ccc(C(=O)NC(C)C)cc1
inactive: endpoint: mean survival time, dose: 25.0 mg/kg/injection, schedule: Q01DX009 (ip), vehicle: DMSO 112 % of control | endpoint: mean survival time, dose: 25.0 mg/kg/injection, schedule: Q01DX009 (ip), vehicle: other 110 % of control | endpoint: mean survival time, dose: 50.0 mg/kg/injection, schedule: Q01DX009 (ip), vehicle: DMSO 114 % of control | endpoint: mean survival time, dose: 50.0 mg/kg/injection, schedule: Q01DX009 (ip), vehicle: other 102 % of control and 109 % of control | endpoint: mean survival time, dose: 100.0 mg/kg/injection, schedule: Q01DX009 (ip), vehicle: other 107 % of control | endpoint: mean survival time, dose: 200.0 mg/kg/injection, schedule: Q01DX009 (ip), vehicle: DMSO 86 % of control

ClCc1c2c(cc3c1CCCC3)CCCC2
inactive: [13] 105 % of control | [14] 93 % of control

Cc1ccc(S(=O)(=O)OC(C#N)c2ccccc2)cc1 (stereo unspecified)
inactive: [11] 100 % of control | [12] 102 % of control | [15] 98 % of control | [3] 101 % of control | [13] 101 % of control | [16] 105 % of control | [14] 107 % of control

Clc1cc2ccccc2c(Cl)n1
inactive: [15] 92 % of control | [16] 89 % of control

O=C(CC(=Nc1ccccc1)c1ccccc1)c1ccccc1.O=C(CC(=Nc1ccccc1)c1ccccc1)c1ccccc1.[Cu]
inactive: [9] 98 % of control | [10] 93 % of control
